In patent publication US20040248801A1, “Methods and reagents for regulation of cellular responses in biological systems” (priority 2000, published 2004):

Experiments:
[1] = system: B. subtilis 011085; experiment: B. subtilis capillary accumulation assay; format: cell-based, Bacillus subtilis
Description: FIG. 4: Results of B. subtilis capillary accumulation assays using ROMP-derived glucose ligands (compound 5-7, Scheme 1). Buffer alone, glucose, or glucose-bearing compounds 5-7 were used as attractants in the capillary accumulation assay. Results are shown for glucose, compound 5, compound 6, and compound 7. Results are the average of at least four trials performed in duplicate and error bars represent single standard deviations.
To test the generality of the observed valency-dependent differences in chemotactic activities and to investigate the role of membrane permeability in responses to our ligands, chemotactic experiments in B. subtilis were conducted. B. subtilis is a gram-positive bacterium that, like gram-negative E. coli, is able to respond to saccharide chemoattractants. In the case of B. subtilis, the multivalent ligands can directly interact with saccharide-sensing receptors, without having to first traverse the outer membrane. Glucose is a chemoattractant for B. subtilis, but galactose is not. Glucose-carrying ligands (compounds 5-7, Scheme 1) were effective chemoattractants for B. subtilis as shown in capillary accumulation assays. […] Free chemoattractant signal glucose had maximal activity as a chemoattractant at 0.5 mM. In analogy to observations with E. coli, as the valency of the ligand increases, the saccharide residue concentration of maximum chemotaxis decreases. […] The results observed indicate that in evolutionarily divergent bacteria E. coli and B. subtilis, the valency of the attractant influences chemotactic response.
E. coli from an overnight culture were grown in LB to OD550 0.4-0.6, washed twice with E. coli chemotaxis buffer, and then partially permeabilized. Bacteria were resuspended in chemotaxis buffer to an OD550 0.1 and utilized in the capillary accumulation assay at 30° C. for 60 min, as previously described. […] Data was analyzed using the Q and Students tests.

[2] = system: E. coli; experiment: E. coli capillary accumulation assay; format: cell-based, Escherichia coli
Procedure: FIGS. 3A and 3B: Results of E. coli capillary accumulation assays. The number of bacteria accumulated is plotted versus the concentration of the attractant (galactose or compounds 1-4, Scheme 1) calculated on a saccharide residue basis. (A): Results are shown for capillaries filled with buffer alone, compound 1, and compound 2 or (B): buffer alone, compound 3 and compound 4 at the indicated concentrations. The vertical line at 1 mM indicates the concentration of maximum chemotaxis for the monomeric compound 1. […] Results are the average of 3 to 6 experiments performed in duplicate and error bars represent a single standard deviation. Partial permeabilization was required to obtain chemotaxis towards 4, and was utilized for all experiments.
E. coli were subjected to concentration gradients of compounds 1-4 in capillary accumulation assays to determine the concentration at which the maximum chemotactic response is achieved and the number of bacteria that accumulate at this maximum.
Concentrations of maximum chemotaxis of 3 and 4 are 100- and 5000-fold lower, respectively, than free galactose (FIG. 3B). […]
E. coli from an overnight culture were grown in LB to OD550 0.4-0.6, washed twice with E. coli chemotaxis buffer, and then partially permeabilized. […] Data was analyzed using the Q and Students tests.

[3] = system: E. coli AW405; experiment: video microscopy motion analysis of bacteria; format: cell-based, Escherichia coli; conditions: first 5-15 seconds after addition of attractant
Procedure: FIG. 2A: Results of video microscopy motion analysis experiments. Bacteria (Escherichia coli) were treated with buffer alone, galactose, or compound 1 or 3 (Scheme 1) at the indicated saccharide concentrations. The results represent the average from at least five independent experiments performed in triplicate. Error bars represent the deviation between per-second averages during the ten second interval.
Ligands functionalized with galactose such as monovalent ligand 1 and multivalent ligand 3, also serve as attractants in vivo. […] To observe the effects of synthetic ligands on tumbling frequency, E. coli were treated with galactose or galactose-bearing ligands, and bacterial motion was recorded and analyzed using the method of Sager et al.. The tumbling frequency was assessed by averaging the mean angular velocity of the paths obtained in the first 5-15 seconds after addition of attractant (FIG. 2A). […]
Partially permeabilized bacteria (25 μM EDTA for 3 min. at room temperature, then quench with 50 μM CaCl2) at an OD550 of 0.1 were placed under a cover slip supported by additional cover slips in the method of Sager et al.. […] The bacterial motion at 28° C. was recorded, and the paths were analyzed using the ExpertVision system. Paths derived from the first 5 to 15 seconds following the introduction of attractant were analyzed. […] Data were analyzed using the Q and Students tests.

[4] = target: glucose/galactose-binding protein (GGBP) (Escherichia coli, UniProt P0AEE5); experiment: in vitro binding assay with purified GGBP
Sequence of glucose/galactose-binding protein (GGBP) (P0AEE5 24-332 limits assumed): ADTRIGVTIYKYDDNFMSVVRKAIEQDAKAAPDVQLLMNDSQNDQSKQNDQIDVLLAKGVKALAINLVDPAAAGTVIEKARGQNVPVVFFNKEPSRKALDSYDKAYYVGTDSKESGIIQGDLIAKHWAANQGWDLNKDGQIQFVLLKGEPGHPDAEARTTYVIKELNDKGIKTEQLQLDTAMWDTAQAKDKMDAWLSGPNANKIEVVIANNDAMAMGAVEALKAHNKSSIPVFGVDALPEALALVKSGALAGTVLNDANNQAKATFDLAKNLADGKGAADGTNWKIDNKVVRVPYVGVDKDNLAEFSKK
Description: The molecular events leading to bacterial chemotaxis have been well studied, and the process has served as a general model for receptor-mediated responses. During chemotaxis in Escherichia coli, chemoattractants, such as sugars and amino acids, and chemorepellents are recognized by specific receptors at the bacterial plasma membrane. For these investigations of multivalent ligand activity, galactose was selected as a model chemoattractant. […] For galactose-mediated signaling, the saccharide must bind to the soluble periplasmic glucose/galactose-binding protein (GGBP), which, in turn, interacts with the galactose-sensing chemoreceptor, Trg. Galactose-GGBP binding to Trg initiates a signaling pathway that results in reversal of the direction of flagellar spin, allowing the bacteria to swim towards the nutrient.
Galactose-bearing ligands 1-4 of varying defined valencies were generated using ROMP methods (Scheme 1). The galactose residues in the multivalent ligands are tethered to the molecular scaffold (polymer backbone) via a short linker.

O=C(NCCOC1OC(CO)C(O)C(O)C1O)C1C[C@@H]2C=CC1C2 (some centres unmarked) [Compound 1]
chemoattractant activity for B. subtilis [1]: not chemoattractants | chemoattractant activity in mutants ([2]; ggbp (AW550 and AW543) or trg (AW701) E. coli mutants): not a chemoattractant | concentration of maximum chemotaxis ([2]; saccharide (galactose) residue basis, partially permeabilized E. coli, 30° C., 60 min): 1 mM | mean angular velocity (tumbling frequency) after addition of attractant [3]: produced similar effects to that of the free chemoattractant | interaction with purified GGBP compared with galactose [4]: at least as favorable as that of galactose
